In paper PMC5310922, “A high-throughput phenotypic screen identifies clofazimine as a potential treatment for cryptosporidiosis” (PLoS Neglected Tropical Diseases, 2017):
Like-named read-outs stand apart in the source and are kept apart here.

How the values were obtained:
C. parvum [1] = assay: Washout assay: 3-h treatments over the asexual life cycle of C. parvum; conditions: 3-h treatment then washout; even at 3×EC99
Procedure: We examined short, three-hour compound treatments of in vitro cultures, followed by compound washout, that covered the complete asexual life cycle, believed to be 13–15 h post invasion [36]. […] The treatment interval lasted 3 h before washout with fresh medium; infected cells were allowed to grow until 48 h post infection before fixation. […] As CFZ is very lipophilic, we sought to determine whether intracellular accumulation was affecting the strong inhibition across each time point.
Infected cells were treated in six 3-h increments over the course of 15 h (the presumed in vitro asexual lifecycle of C. parvum). HCT-8 cells were seeded (25 μL/well) into clear-bottomed 384-well plates (Greiner) at a density of 6.0×10^5 cells/mL (15,000 cells/well) in assay medium, and allowed to grow 24 h at 37°C with 5% CO2 in a humidified tissue culture incubator, covered with a custom metal lid (The Genomics Institute of the Novartis Research Foundation) to reduce evaporation. After 24 h, and 2 h before infecting with C. parvum oocysts (time -2 hpi), the treatment time course was initiated. […] DMSO was used as a negative control. Cell medium was removed from designated wells and replaced with medium containing either compound or DMSO. […] Plates were then spun at 150×g for 3 min, and kept at 37°C with 5% CO2 in a humidified tissue culture incubator during drug treatment intervals. At the end of each 3 h time point, infected cells were carefully washed three times with fresh, pre-warmed assay medium, and the next set of wells for the subsequent time point were treated. The final time point extended to 18 h, to cover re-invasion of merozoites into new HCT-8 cells. After the final compound treatment was washed off, infected cells were allowed to grow until 48 h post infection.

C. parvum [2] = assay: Host cell 3-h pre-treatment, with or without wash, then C. parvum infection; assay type: cell-based, Cryptosporidium parvum; conditions: for EC50: Cryptosporidium parvum, host cells pretreated 3 h, C. parvum, 48 hpi
Procedure: A set of parallel wells were also treated and not washed prior to infection. 48 hpi, infected cells were imaged as described above, and EC50s for each compound pre- and post-wash were determined.

in vitro = conditions: human
Procedure: Cells were then plated (5 μL/well) into 1536-well assay plates at a density of 5.5×10^5 cells/mL (2,750 cells/well).
Plates were then washed twice with phosphate buffered saline (PBS). […] To prevent non-specific binding, the cells were blocked with SuperBlock™ T20 blocking agent (Thermo) for 1 h at room temperature. Cryptosporidium parasites were stained with 1 μg/mL fluorescein isothiocyanate (FITC)-conjugated Vicia villosa lectin (Vector Laboratories) in 1:10 diluted SuperBlock™ in PBS-T, supplemented with 3 μM 4',6-diamidino-2-phenylindole (DAPI) to visualize host cell nuclei. Staining was for 1 h at room temperature in the dark. Finally, cells were washed twice with PBS-T and the plates were sealed with adhesive foil. The plates were imaged with a CellInsight CX5 High Content Screening Platform (Thermo) with a 10× objective. […] For 1536-well format assays (primary screening, triplicate reconfirmation, and dose-response reconfirmation, one microscopic field (802,511.39 μm^2) per well, and for the 384-well washout assay, 4 fields per well were captured. The software identified primary objects (HCT-8 host cells) and spots within allowed distances to the nuclei (Cryptosporidium). Both cytotoxicity against HCT-8 cells (number of nuclei relative to DMSO-treated controls) and Cryptosporidium inhibition (spot counts relative to DMSO-treated controls) were assessed.
Images were processed by the HCS Studio Scan software, and Selected Object Count (HCT-8 cells) and Spot Count (Cryptosporidium) were analyzed in Genedata Screener (v13.0-Standard). Spot Count and Selected Object Count were normalized to neutral controls minus inhibitors (floxuridine for Spot Count, and puromycin for Selected Object Count). For single-point primary assay plates, an additional run-wise median correction was applied to reduce screen artifacts (e.g. uneven dispense), whereas no correction was applied to triplicate reconfirmation and dose-response plates. For primary screening, a compound is considered a hit by a ≥ 70% reduction in Corrected Spot Count. Compounds that caused moderate cytotoxicity were filtered out (i.e., excluding all Corrected Selected Object Counts ≤ -60%). Dose-response curves were fit with Genedata Analyzer using the Smart Fit function.

[3] = Pharmacokinetic study in mice (plasma, feces, urine); conditions: 20 mg/kg oral; for fecal excretion (unchanged), first 24 h: mean ± SEM; for peak plasma concentration: mean ± SEM n=3
[4] = HEK293T 72 h cytotoxicity (CellTiter-Glo); assay type: cell-based, human; conditions: human
Procedure: Two mammalian cell lines were used for counter-screening for general cytotoxicity of hit compounds: human embryonic kidney cells (HEK293T; ATCC CRL-3216) and human hepatocellular carcinoma cells (HepG2; ATCC HB-8065). […] Compounds were pre-spotted into tissue culture-treated white solid-bottomed 1536-well plates (Greiner) in a 1:3 dose-response dilution (top concentration 20 μM). HEK293T and HepG2 cells were diluted to 75×10^3 cells/mL and 150×10^3 cells/mL, respectively, and 5 μL/well were dispensed into assay plates with a MultiFlo FX Multi-Mode Dispenser (Biotek). […] At the completion of the assay, CellTiter-Glo (Promega) was prepared at 1:2 (reagent:water) of the manufacturer’s instructions, and 2 μL were dispensed into each well. After a 5 min incubation at room temperature, luminescence readings were measured with an EnVision Multilabel Plate Reader (Perkin Elmer). […] were uploaded into Genedata Screener (v13.0-Standard), and data normalized to DMSO- and puromycin-treated wells. A four-parameter non-linear regression curve fit was applied to dose-response data using Genedata to determine the half maximal cytotoxic concentration (CC50) of each compound.

Cryptosporidium = system: Cryptosporidium; design: method as in PMID 23878324; conditions: once per day for ten consecutive days at 100 mg/kg; cited from earlier work
[5] = design: method as in PMID 2656045; conditions: cited from earlier work
[6] = 7% Tween 80, 3% ethanol, 90% water

| SMILES | inhibition of parasite growth at all time points other than 10–13 h post infection (C. parvum [1]) | EC50 (C. parvum [2]; read-out: Post-wash EC50) | EC50 (C. parvum [2]; read-out: Pre-wash EC50) | CC50 at 48 h (in vitro) | dosage excreted in the urine, first 48 h [3] | plasma concentration dropped to, within first 24 h post dosing [3] | fecal excretion (unchanged), first 24 h [3, 6] | peak plasma concentration [3, 6] | CC50 at 72 h [4] | efficacy in mouse model of chronic cryptosporidiosis (Cryptosporidium) | inhibition of C. parvum proliferation after compound removal by repeated washes (C. parvum [2]; host cell pre-treatment, dose-response) | drug half-life [5] | CC50 at 48 h (in vitro; HCT-8 cells) | time plasma concentrations remained stable after the initial maximal concentration [3] | fecal excretion (unchanged), first 24 h ([3]; MC-Tween) | peak plasma concentration ([3]; MC-Tween, within first 24 h) | fecal excretion (unchanged), first 24 h ([3]; corn oil) | peak plasma concentration ([3]; corn oil, within first 24 h) | mean fecal excretion, next 48 h ([3]; either formulation) | CC50 at 72 h ([4]; HEK293T cells, 72 h, value (SD; n), read-out: HEK293T 72H Cytotoxicity CC50 [µM] (SD; n)) |
| --- | --- | --- | --- | --- | --- | --- | --- | --- | --- | --- | --- | --- | --- | --- | --- | --- | --- | --- | --- | --- |
| CCOc1ccc2cc(-c3nn(CC4CCN(C)CC4)c4ncnc(N)c34)ccc2c1 [BKI-1294] | < 60% | 0.955 µM | > 12.5 µM | > 12.5 µM | 1.6% | 6.7 ± 0.3 ng/mL | 8.9% ± 0.5% | 1282 ± 154 ng/mL | 12.4 µM | demonstrated efficacy |  |  |  |  |  |  |  |  |  |  |
| CC(C)/N=c1\cc2n(-c3ccc(Cl)cc3)c3ccccc3nc-2cc1Nc1ccc(Cl)cc1 [Clofazimine] |  | 0.007 µM | 0.023 µM |  | < 0.15% |  |  |  |  |  | near equipotent inhibition | ~ 70 days | > 12.5 µM | at least 20 hours | 25.7% ± 13.3% | 288 ± 2 ng/mL | 14.8% ± 3.1% | 445 ± 61 ng/mL | < 2% | > 20 µM |
